Measured values from the supplement of paper PMC10307832.

Columns and labels:
Test in all cases: relative viability (nuclei count vs DMSO), 5 days (fraction); higher = more cells survive
[1] = compound: C1CC(C1)(C(=O)O)C(=O)O.[NH2-].[NH2-].[Pt+2] [Carboplatin] + CC(=O)c1c(C)c2cnc(Nc3ccc(N4CCNCC4)cn3)nc2n(C2CCCC2)c1=O [Palbociclib] (partner 0.5 µM)
Outline: (§1)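 Relative viability was taken as the ratio of nuclei in treated wells to nuclei in vehicle wells. Lung cancer cell lines in 1536-well plates received compounds by pin tool one day after seeding, either one drug alone or a fixed anchor-drug dose plus five library-drug doses (not always all listed) in √10 steps. Nuclei were counted on 4× images after 5 days of treatment, and values are medians of duplicate plates.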

GSK126 + Crizotinib = compound: CC[C@H](C)N1C=C(C2=C(C=C(C=C21)C3=CN=C(C=C3)N4CCNCC4)C(=O)NCC5=C(C=C(NC5=O)C)C)C [GSK126] + C[C@@H](Oc1cc(-c2cnn(C3CCNCC3)c2)cnc1N)c1c(Cl)ccc(F)c1Cl [Crizotinib] (partner 1 µM)
Outline: as §1

Carboplatin + Phenformin = compound: C1CC(C1)(C(=O)O)C(=O)O.[NH2-].[NH2-].[Pt+2] [Carboplatin] + N=C(N)NC(=N)NCCc1ccccc1 [Phenformin] (partner 250 µM)
Outline: as §1

MLN4924 + Bortezomib = compound: NS(=O)(=O)OC[C@@H]1C[C@@H](n2ccc3c(N[C@H]4CCc5ccccc54)ncnc32)C[C@@H]1O [MLN4924] + CC(C)C[C@H](NC(=O)[C@H](Cc1ccccc1)NC(=O)c1cnccn1)B(O)O [Bortezomib] (partner 0.002 µM)
Outline: as §1

Cell Line | relative viability ([1]; first compound 0.08 µM) | relative viability ([1]; first compound 0.253 µM) | relative viability ([1]; first compound 0.8 µM) | relative viability ([1]; first compound 2.53 µM) | relative viability ([1]; first compound 8 µM) | relative viability (GSK126 + Crizotinib; first compound 0.08 µM) | relative viability (GSK126 + Crizotinib; first compound 0.253 µM) | relative viability (GSK126 + Crizotinib; first compound 0.8 µM) | relative viability (GSK126 + Crizotinib; first compound 2.53 µM) | relative viability (GSK126 + Crizotinib; first compound 8 µM) | relative viability (Carboplatin + Phenformin; first compound 0.08 µM) | relative viability (Carboplatin + Phenformin; first compound 0.253 µM) | relative viability (Carboplatin + Phenformin; first compound 0.8 µM) | relative viability (Carboplatin + Phenformin; first compound 2.53 µM) | relative viability (Carboplatin + Phenformin; first compound 8 µM) | relative viability (MLN4924 + Bortezomib; first compound 0.04 µM) | relative viability (MLN4924 + Bortezomib; first compound 0.1265 µM) | relative viability (MLN4924 + Bortezomib; first compound 0.4 µM) | relative viability (MLN4924 + Bortezomib; first compound 1.265 µM) | relative viability (MLN4924 + Bortezomib; first compound 4 µM)
SK-MES-1 | 0.354 | 0.298 | 0.316 | 0.329 | 0.315 | 1.01 | 0.971 | 0.931 | 0.925 | 1.05 | 0.681 | 0.672 | 0.671 | 0.638 | 0.592 |  |  |  |  | 
NCI-H1648 | 0.239 | 0.291 | 0.264 | 0.302 | 0.3 |  |  |  |  |  |  |  |  |  |  |  |  |  |  | 
PC-14 | 0.552 | 0.509 | 0.411 | 0.239 | 0.117 | 0.839 | 0.989 | 0.922 | 0.892 | 0.799 | 0.807 | 0.592 | 0.53 | 0.383 | 0.274 | 0.857 | 0.823 | 0.369 | 0.172 | 0.101
NCI-H1651 | 0.514 | 0.488 | 0.507 | 0.498 | 0.413 | 0.907 | 0.871 | 0.921 | 0.871 | 0.911 | 0.386 | 0.335 | 0.288 | 0.272 | 0.218 | 0.936 | 0.99 | 0.966 | 0.498 | 0.181
HOP-62 | 0.441 | 0.431 | 0.462 | 0.409 | 0.383 | 0.965 | 0.996 | 0.788 | 0.726 | 0.928 | 0.713 | 0.643 | 0.628 | 0.654 | 0.548 | 0.392 | 0.402 | 0.117 | 0.0531 | 0.0923
HCC-44 | 0.994 | 0.975 | 1 | 0.859 | 0.89 | 0.766 | 0.864 | 0.788 | 0.64 | 0.78 | 0.344 | 0.191 | 0.194 | 0.187 | 0.144 | 0.774 | 0.642 | 0.281 | 0.208 | 0.19
HCC-15 | 0.751 | 0.721 | 0.702 | 0.615 | 0.575 | 0.882 | 0.873 | 0.786 | 0.748 | 0.709 | 0.562 | 0.47 | 0.441 | 0.407 | 0.37 | 0.685 | 0.53 | 0.234 | 0.102 | 0.0928
NCI-H460 | 0.232 | 0.147 | 0.127 | 0.0559 | 0.052 | 1.13 | 0.929 | 0.811 | 0.9 | 0.875 | 0.548 | 0.507 | 0.504 | 0.404 | 0.122 | 0.998 | 1.1 | 1.04 | 0.203 | 0.0203
NCI-H1299 |  |  |  |  |  | 0.952 | 0.959 | 0.779 | 0.941 | 0.873 |  |  |  |  |  | 1.01 | 0.803 | 0.402 | 0.269 | 0.225
SK-LU-1 | 0.424 | 0.386 | 0.363 | 0.415 | 0.355 | 1.01 | 0.935 | 0.949 | 1.13 | 1.06 | 0.78 | 0.578 | 0.44 | 0.533 | 0.41 | 0.856 | 0.866 | 0.293 | 0.187 | 0.28
COR-L 105 | 0.442 | 0.427 | 0.384 | 0.379 | 0.414 | 0.859 | 0.935 | 0.783 | 0.687 | 0.62 | 0.576 | 0.418 | 0.481 | 0.411 | 0.373 | 0.629 | 0.396 | 0.252 | 0.242 | 0.41
COR-L23 | 0.32 | 0.303 | 0.226 | 0.196 | 0.123 | 0.663 | 0.559 | 0.659 | 0.611 | 0.713 | 0.453 | 0.394 | 0.428 | 0.353 | 0.241 | 0.936 | 0.915 | 0.587 | 0.186 | 0.105
NCI-H3122 | 0.17 | 0.211 | 0.17 | 0.183 | 0.189 | 0.251 | 0.341 | 0.292 | 0.267 | 0.347 | 0.4 | 0.399 | 0.385 | 0.37 | 0.359 | 1.07 | 0.752 | 0.35 | 0.208 | 0.146
NCI-H23 | 0.453 | 0.513 | 0.513 | 0.461 | 0.419 | 0.662 | 0.486 | 0.485 | 0.523 | 0.653 | 0.824 | 0.753 | 0.768 | 0.727 | 0.714 | 0.94 | 0.617 | 0.376 | 0.165 | 0.144
PC-3 [JPC-3] | 0.537 | 0.577 | 0.511 | 0.526 | 0.512 | 0.993 | 0.997 | 0.982 | 0.956 | 1.02 | 0.486 | 0.461 | 0.449 | 0.473 | 0.456 | 0.857 | 0.819 | 0.573 | 0.328 | 0.282
NCI-H2228 | 0.898 | 0.841 | 0.654 | 0.737 | 0.552 | 0.547 | 0.492 | 0.368 | 0.573 | 0.458 | 0.26 | 0.342 | 0.294 | 0.257 | 0.282 |  | 1.03 | 0.309 | 0.121 | 0.166
A549 |  |  |  |  |  | 0.925 | 0.677 | 0.709 | 0.807 | 0.652 | 0.186 | 0.193 | 0.16 | 0.112 | 0.073 |  |  |  |  | 
NCI-H358 | 0.141 | 0.148 | 0.144 | 0.149 | 0.183 | 0.733 | 0.577 | 0.667 | 0.608 | 0.395 | 0.426 | 0.418 | 0.395 | 0.431 | 0.334 |  |  |  |  | 
